Measured values: patent publication US8901294B2, “MRI contrast agent having gadolinium complex” (priority 2010, dated 2014)
Read-outs that look alike come from different tables or passages of the source. Marks after values point to notes of the source that are not given here.

Tests used:
[1] = literature data, cited from earlier work; for LogK [GdL]/[Gd][L] (stability constant): 25° C., μ = 0.10M (KCl); for logKsel(Gd/Ca) (selectivity constant): Gd over Ca; for logKsel(Gd/Cu) (selectivity constant): Gd over Cu; for logKsel(Gd/Zn) (selectivity constant): Gd over Zn; for pGd: pM = −log[M]free at pH7.4, [M]total = 1 μmol/dm^3, [L]total = 1.1 μmol/dm^3
[2] = literature data, cited from earlier work; for LogK [CaL]/[Ca][L] (stability constant): 25° C., μ = 0.10M (KCl)
[3] = 25° C., μ = 0.10M (KCl); literature data; cited from earlier work
[4] = literature data, cited from earlier work; for LogK [ZnL]/[Zn][L] (stability constant): 25° C., μ = 0.10M (KCl); for pZn: pM = −log[M]free at pH7.4, [M]total = 1 μmol/dm^3, [L]total = 1.1 μmol/dm^3
[5] = literature data, cited from earlier work; for LogK [CuL]/[Cu][L] (stability constant): 25° C., μ = 0.10M (KCl); for pCu: pM = −log[M]free at pH7.4, [M]total = 1 μmol/dm^3, [L]total = 1.1 μmol/dm^3
[6] = reference values from ref. 8 or 9; cited from earlier work
[7] = Transmetalation kinetics: evolution of paramagnetic relaxation rate R1P(t)/R1P(0) in presence of ZnCl2; assay type: physicochemical; conditions: phosphate-buffered solution pH 7.4, 2.5 mmol/L Gd-complex and 2.5 mmol/L ZnCl2, 72 hours
Excerpt: […]. The relative value of R1^P at time t, R1^P(t)/R1^P(0), is therefore a good estimate of the extent of transmetalation. The evolution of R1^P(t)/R1^P(0) over time gives relevant information about the kinetics of the reaction, whereas the plateau value theoretically reached at t=∞ will reflect the thermodynamic aspect.
Accordingly, in order to investigate the transmetalation kinetics of the gadolinium complexes according to the present invention, the evolution of water proton relaxation rate (R1^P) of a phosphate-buffered solution (pH 7.4) containing 2.5 mmol/L of Gd-complex and 2.5 mmol/L of ZnCl2 with time was measured. To measure the change in the relaxation rate, 10 μL of a ZnCl2 solution (250 mmol/L) was added to 1 mL of a buffered solution of the Gd-complex and the mixture was vigorously stirred. The same experiment was performed with Dotarem®, Omniscan®, Multihance®, Primovist® and ethyl tranexamate (6) with zinc acetate for comparison. The measurement was made on a 3T whole body system (Magnetom Tim Trip; Simens, Germany) at room temperature.

[8] = Relaxation times (T1, T2) and relaxivities (R1, R2) at 1.5 T; assay type: physicochemical; conditions: 1.5 T; mean value(±SD)
Experimental: T1 measurements were carried out using an inversion recovery method with a variable inversion time (TI) at 1.5 T. The MR images were acquired at 35 different TI values ranging from 50 to 1750 ms. T1 relaxation times were obtained from the nonlinear least-squares fit of the signal intensity measured at each T1 value. For T2 measurements the CPMG (Carr-Purcell-Meiboon-Gill) pulse sequence was adapted for multiple spin-echo measurements. Thirty-four images were acquired with 34 different echo time (TE) values. T2 relaxation times were obtained from the nonlinear least-squares fit of the mean pixel values for the multiple spin-echo measurements at each echo time. Relaxivities were then calculated as an inverse (R=1/s·mM) of relaxation time per mM. The determined relaxation times and relaxivities are finally transformed to a phantom map. The phantom images were obtained with the same concentration of Dotarem® and gadolinium complexes or comparative purposes. […] Table 2 summarizes the relaxation times and relaxivities for gadolinium complexes of the present invention along with other Gd-complexes.

[9] = for logKCaL(pH7.4) (conditional stability constant): pH 7.4; for pCa: pM = −log[M]free at pH7.4, [M]total = 1 μmol/dm^3, [L]total = 1.1 μmol/dm^3
[10] = 25° C., μ = 0.10M (KCl)
[11] = for logKsel(Gd/Ca) (selectivity constant): Gd over Ca; for logKsel(Gd/Ca) (selectivity constant) / logKsel(Gd/Cu) (selectivity constant) / logKsel(Gd/Zn) (selectivity constant): 25° C., μ = 0.10M (KCl); for logKsel(Gd/Cu) (selectivity constant): Gd over Cu; for logKsel(Gd/Zn) (selectivity constant): Gd over Zn; for logKGdL(pH7.4) (conditional stability constant): pH 7.4; for pGd: pM = −log[M]free at pH7.4, [M]total = 1 μmol/dm^3, [L]total = 1.1 μmol/dm^3
[12] = for logKCuL(PH7.4) (conditional stability constant): pH 7.4; for pCu: pM = −log[M]free at pH7.4, [M]total = 1 μmol/dm^3, [L]total = 1.1 μmol/dm^3
[13] = for logKZnL(pH7.4) (conditional stability constant): pH 7.4; for pZn: pM = −log[M]free at pH7.4, [M]total = 1 μmol/dm^3, [L]total = 1.1 μmol/dm^3

SMILES: O=C(O)CN1CCN(CC(=O)O)CCN(CC(=O)O)CCN(CC(=O)O)CC1 [DOTA]
- LogK [GdL]/[Gd][L] (stability constant) [1]: 25.30
- logKsel(Gd/Ca) (selectivity constant) [1]: 8.07
- logKsel(Gd/Cu) (selectivity constant) [1]: 2.67
- logKsel(Gd/Zn) (selectivity constant) [1]: 4.25
- logKGdL(pH7.4) (conditional stability constant) [1]: 18.33
- pGd [1]: 19.2
- LogK [CaL]/[Ca][L] (stability constant) [2]: 17.23
- logKCaL(pH7.4) (conditional stability constant) [2]: 10.26
- LogK [H2L]/[HL][H] (protonation constant) [3]: 9.68
- LogK [H3L]/[H2L][H] (protonation constant) [3]: 4.55
- LogK [H4L]/[H3L][H] (protonation constant) [3]: 4.13
- LogK [HL]/[L][H] (protonation constant) [3]: 12.09
- ΣpKa (overall basicity) [3]: 30.45
- LogK [ZnL]/[Zn][L] (stability constant) [4]: 21.05
- logKZnL(pH7.4) (conditional stability constant) [4]: 14.08
- pZn [4]: 15.19
- LogK [CuL]/[Cu][L] (stability constant) [5]: 22.63
- logKCuL(PH7.4) (conditional stability constant) [5]: 15.66
- pCu [5]: 14.05

SMILES: O=C(O)CN(CCN(CC(=O)O)CC(=O)O)CCN(CC(=O)O)C(COCc1ccccc1)C(=O)O (centres unmarked) [BOPTA]
- LogK [GdL]/[Gd][L] (stability constant) [1]: 22.6
- logKGdL(pH7.4) (conditional stability constant) [1]: 18.4
- LogK [H2L]/[HL][H] (protonation constant) [3]: 8.21
- LogK [H3L]/[H2L][H] (protonation constant) [3]: 4.35
- LogK [H4L]/[H3L][H] (protonation constant) [3]: 2.83
- LogK [HL]/[L][H] (protonation constant) [3]: 10.71
- ΣpKa (overall basicity) [3]: 26.10
- logKZnL(pH7.4) (conditional stability constant) [4]: 13.9
- logKCuL(PH7.4) (conditional stability constant) [5]: 17.3

SMILES: CCOc1ccc(CC(CN(CCN(CC(=O)[O-])CC(=O)[O-])CC(=O)[O-])N(CC(=O)[O-])CC(=O)[O-])cc1.[Gd+3].[Na+].[Na+] (centres unmarked) [Primovist]
- R1 relaxivity [6]: 4.7 ± 0.2 mM⁻¹ s⁻¹
- R2 relaxivity [6]: 5.1 ± 0.6 mM⁻¹ s⁻¹
- T1 relaxation time [6]: 213.15 ± 9.07 ms
- T2 relaxation time [6]: 198.83 ± 23.4 ms
- pattern of evolution of the paramagnetic relaxation rate R1P(t)/R1P(0) (in words) [7]: drastic decrease in the rate

SMILES: O.O=C([O-])CN1CCN(CC(=O)[O-])CCN(CC(=O)NCC2CCC(C(=O)O)CC2)CCN(CC(=O)[O-])CC1.[Gd+3] (centres unmarked) [Compound 5a]
- R1 relaxivity [8]: 3.9 ± 0.04 mM⁻¹ s⁻¹
- R2 relaxivity [8]: 4.0 ± 0.04 mM⁻¹ s⁻¹
- T1 relaxation time [8]: 256.43 ± 2.63^a msec
- T2 relaxation time [8]: 250.02 ± 2.50 ms

SMILES: O=C(O)CN(CCN(CC(=O)O)CC(=O)O)CCN(CC(=O)O)CC(=O)O [DTPA]
- LogK [GdL]/[Gd][L] (stability constant) [1]: 22.46
- logKsel(Gd/Ca) (selectivity constant) [1]: 11.71
- logKsel(Gd/Cu) (selectivity constant) [1]: 1.08
- logKsel(Gd/Zn) (selectivity constant) [1]: 3.76
- logKGdL(pH7.4) (conditional stability constant) [1]: 18.14
- pGd [1]: 17.14
- LogK [CaL]/[Ca][L] (stability constant) [2]: 10.75
- logKCaL(pH7.4) (conditional stability constant) [2]: 6.43
- pCa ([2]; pM = −log[M]free at pH7.4, [M]total = 1 μmol/dm^3, [L]total = 1.1 μmol/dm^3): 5.45
- LogK [H2L]/[HL][H] (protonation constant) [3]: 8.60
- LogK [H3L]/[H2L][H] (protonation constant) [3]: 4.28
- LogK [H4L]/[H3L][H] (protonation constant) [3]: 2.64
- LogK [HL]/[L][H] (protonation constant) [3]: 10.49
- ΣpKa (overall basicity) [3]: 26.01
- LogK [ZnL]/[Zn][L] (stability constant) [4]: 18.70
- logKZnL(pH7.4) (conditional stability constant) [4]: 14.38
- pZn [4]: 13.39
- LogK [CuL]/[Cu][L] (stability constant) [5]: 21.38
- logKCuL(PH7.4) (conditional stability constant) [5]: 17.06
- pCu [5]: 16.06

SMILES: CNC[C@H](O)[C@@H](O)[C@H](O)[C@H](O)CO.CNC[C@H](O)[C@@H](O)[C@H](O)[C@H](O)CO.O=C([O-])CN(CCN(CC(=O)[O-])CC(=O)O)CCN(CC(=O)O)C(COCc1ccccc1)C(=O)[O-].[Gd+3] (centres unmarked) [Multihance]
- R1 relaxivity [6]: 4.0 ± 0.2 mM⁻¹ s⁻¹
- R2 relaxivity [6]: 4.3 ± 0.5 mM⁻¹ s⁻¹
- T1 relaxation time [6]: 250.62 ± 12.5 ms
- T2 relaxation time [6]: 235 ± 27.4 ms
- pattern of evolution of the paramagnetic relaxation rate R1P(t)/R1P(0) (in words) [7]: drastic decrease in the rate

SMILES: CNC[C@H](O)[C@@H](O)[C@H](O)[C@H](O)CO.O=C([O-])CN1CCN(CC(=O)[O-])CCN(CC(=O)O)CCN(CC(=O)[O-])CC1.[Gd+3] [Dotarem]
- R1 relaxivity [8]: 3.7 ± 0.04 mM⁻¹ s⁻¹
- R2 relaxivity [8]: 4.1 ± 0.21 mM⁻¹ s⁻¹
- T1 relaxation time [8]: 270.30 ± 2.92 ms
- T2 relaxation time [8]: 244.54 ± 12.5 ms

SMILES: CCOc1ccc(C[C@@H](CN(CCN(CC(=O)O)CC(=O)O)CC(=O)O)N(CC(=O)O)CC(=O)O)cc1 [EOB-DTPA]
- LogK [GdL]/[Gd][L] (stability constant) [1]: 23.46
- logKGdL(pH7.4) (conditional stability constant) [1]: 18.7
- LogK [H2L]/[HL][H] (protonation constant) [3]: 8.63
- LogK [H3L]/[H2L][H] (protonation constant) [3]: 4.26
- LogK [H4L]/[H3L][H] (protonation constant) [3]: 2.73
- LogK [HL]/[L][H] (protonation constant) [3]: 10.91
- ΣpKa (overall basicity) [3]: 26.53

SMILES: CCOC(=O)C1CCC(CNC(=O)CN2CCN(CC(=O)O)CCN(CC(=O)O)CCN(CC(=O)O)CC2)CC1 (centres unmarked) [Compound 4b, DO3A-tranexamic Acid Ester Derivative 1]
- logKCaL(pH7.4) (conditional stability constant) [9]: 10.06
- pCa [9]: 9.06
- LogK [H2L]/[HL][H] (protonation constant) [10]: 9.35
- LogK [H3L]/[H2L][H] (protonation constant) [10]: 5.24
- LogK [HL]/[L][H] (protonation constant) [10]: 10.80
- logKsel(Gd/Ca) (selectivity constant) [11]: 6.65
- logKsel(Gd/Cu) (selectivity constant) [11]: 4.68
- logKsel(Gd/Zn) (selectivity constant) [11]: 5.43
- logKGdL(pH7.4) (conditional stability constant) [11]: 16.72
- pGd [11]: 15.72
- logKCuL(PH7.4) (conditional stability constant) [12]: 12.04
- pCu [12]: 11.04
- logKZnL(pH7.4) (conditional stability constant) [13]: 11.29
- pZn [13]: 10.29

SMILES: O=C(O)CN1CCN(CC(=O)O)CCN(CC(=O)NCC2CCC(C(=O)O)CC2)CCN(CC(=O)O)CC1 (centres unmarked) [Compound 4a, DO3A-tranexamic acid]
- logKCaL(pH7.4) (conditional stability constant) [9]: 8.16
- pCa [9]: 7.16
- LogK [H2L]/[HL][H] (protonation constant) [10]: 8.91
- LogK [H3L]/[H2L][H] (protonation constant) [10]: 4.93
- LogK [H4L]/[H3L][H] (protonation constant) [10]: 4.87
- LogK [HL]/[L][H] (protonation constant) [10]: 11.73
- logKsel(Gd/Ca) (selectivity constant) [11]: 10.56
- logKsel(Gd/Cu) (selectivity constant) [11]: 7.02
- logKsel(Gd/Zn) (selectivity constant) [11]: 7.87
- logKGdL(pH7.4) (conditional stability constant) [11]: 18.73
- pGd [11]: 17.73
- logKCuL(PH7.4) (conditional stability constant) [12]: 11.70
- pCu [12]: 10.70
- logKZnL(pH7.4) (conditional stability constant) [13]: 10.86
- pZn [13]: 9.86

SMILES: C=CCOC(=O)C1CCC(CNC(=O)CN2CCN(CC(=O)O)CCN(CC(=O)O)CCN(CC(=O)O)CC2)CC1 (centres unmarked) [Compound 4c, DO3A-tranexamic Acid Ester Derivative 2]
- logKCaL(pH7.4) (conditional stability constant) [9]: 10.44
- pCa [9]: 9.43
- LogK [H2L]/[HL][H] (protonation constant) [10]: 8.64
- LogK [H3L]/[H2L][H] (protonation constant) [10]: 5.45
- LogK [HL]/[L][H] (protonation constant) [10]: 10.62
- logKsel(Gd/Ca) (selectivity constant) [11]: 6.55
- logKsel(Gd/Cu) (selectivity constant) [11]: 2.21
- logKsel(Gd/Zn) (selectivity constant) [11]: 3.91
- logKGdL(pH7.4) (conditional stability constant) [11]: 16.99
- pGd [11]: 15.99
- logKCuL(PH7.4) (conditional stability constant) [12]: 14.77
- pCu [12]: 13.77
- logKZnL(pH7.4) (conditional stability constant) [13]: 13.08
- pZn [13]: 12.08
